The values below come from US7410970B2, “Substituted 1,4,-di-piperidin-4-yl-piperazine derivatives and their use as neurokinin antagonists” (Janssen Pharmaceutica, N.V., priority 2002, dated 2008).

Usually melting point stands for the temperature, or range, at which the solid turns liquid.

In one series the target is T1, h-NK1 receptor (Homo sapiens, UniProt P25103).
T1 construct: expressed in transfected cells; host or cells: CHO cells
As to the kind of experiment: Binding experiment for h-NK1 receptor: displacement of [3H]-Substance P, CHO cells. Conditions: cloned human h-NK1 receptors expressed in CHO cells, read-out: h-NK1 pIC50 (converted). As for the experimental part: (§1) The compounds according to the invention were investigated for interaction with various neurotransmitter receptors, ion channels and transporter binding sites using the radioligand binding technique. Membranes from tissue homogenates or from cells, expressing the receptor or transporter of interests, were incubated with a radioactively labelled substance ([^3H]- or [^125I] ligand) to label a particular receptor. […] Following incubation, labelled membranes were harvested and rinsed with excessive cold buffer to remove non-bound radioactivity by rapid filtration under suction. Membrane bound radioactivity was counted in a scintillation counter and results were expressed in counts per minute (cpm). The compounds were dissolved in DMSO and tested at 10 concentrations ranging from 10^−10 to 10^−5 M. The ability of the compounds according to the invention to displace [^3H]-Substance P from cloned human h-NK1 receptors expressed in CHO cells, to displace [^3H]-SR-48968 from cloned human h-NK2 receptors expressed in Sf9 cells, and to displace [^3H]-SR-142801 from cloned human h-NK3 receptors expressed in CHO cells was evaluated.

In the next series the target is T2, h-NK2 receptor (Homo sapiens, UniProt P21452).
T2 construct: expressed in transfected cells; host or cells: Sf9 cells
T2 sequence (P21452 1-398): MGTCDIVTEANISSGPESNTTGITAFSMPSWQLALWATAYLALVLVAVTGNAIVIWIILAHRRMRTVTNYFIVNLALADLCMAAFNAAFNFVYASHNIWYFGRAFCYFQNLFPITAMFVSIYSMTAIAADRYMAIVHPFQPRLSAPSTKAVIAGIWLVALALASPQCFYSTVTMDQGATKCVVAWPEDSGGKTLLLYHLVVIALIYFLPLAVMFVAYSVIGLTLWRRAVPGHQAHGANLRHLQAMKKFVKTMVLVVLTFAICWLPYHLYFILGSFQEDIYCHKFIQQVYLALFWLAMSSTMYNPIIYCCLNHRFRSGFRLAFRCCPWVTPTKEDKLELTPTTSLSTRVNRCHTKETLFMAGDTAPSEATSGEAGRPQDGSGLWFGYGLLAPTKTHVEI
As to the kind of experiment: Binding experiment for h-NK2 receptor: displacement of [3H]-SR-48968, Sf9 cells. Conditions: cloned human h-NK2 receptors expressed in Sf9 cells, read-out: h-NK2 pIC50 (converted). The procedure: as §1

The target of the next series is T3, h-NK3 receptor (Homo sapiens, UniProt P29371).
T3 construct: expressed in transfected cells; host or cells: CHO cells
T3 sequence (P29371 1-465): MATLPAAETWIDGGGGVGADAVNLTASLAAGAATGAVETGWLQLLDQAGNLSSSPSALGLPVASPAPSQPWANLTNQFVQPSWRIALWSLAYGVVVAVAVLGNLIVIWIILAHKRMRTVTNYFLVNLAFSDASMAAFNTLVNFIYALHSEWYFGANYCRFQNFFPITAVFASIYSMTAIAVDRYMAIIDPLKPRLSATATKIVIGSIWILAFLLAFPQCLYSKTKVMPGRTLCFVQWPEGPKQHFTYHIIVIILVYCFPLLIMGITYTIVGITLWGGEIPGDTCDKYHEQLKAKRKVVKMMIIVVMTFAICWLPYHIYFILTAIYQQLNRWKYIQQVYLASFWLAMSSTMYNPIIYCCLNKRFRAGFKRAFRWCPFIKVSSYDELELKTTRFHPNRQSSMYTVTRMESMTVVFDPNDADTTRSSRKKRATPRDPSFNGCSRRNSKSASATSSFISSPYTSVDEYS
As to the kind of experiment: Binding experiment for h-NK3 receptor: displacement of [3H]-SR-142801, CHO cells. The note with it: cloned human h-NK3 receptors expressed in CHO cells, read-out: h-NK3 pIC50 (converted). As for the experimental part: as §1

T1 sequence (P25103 whole entry): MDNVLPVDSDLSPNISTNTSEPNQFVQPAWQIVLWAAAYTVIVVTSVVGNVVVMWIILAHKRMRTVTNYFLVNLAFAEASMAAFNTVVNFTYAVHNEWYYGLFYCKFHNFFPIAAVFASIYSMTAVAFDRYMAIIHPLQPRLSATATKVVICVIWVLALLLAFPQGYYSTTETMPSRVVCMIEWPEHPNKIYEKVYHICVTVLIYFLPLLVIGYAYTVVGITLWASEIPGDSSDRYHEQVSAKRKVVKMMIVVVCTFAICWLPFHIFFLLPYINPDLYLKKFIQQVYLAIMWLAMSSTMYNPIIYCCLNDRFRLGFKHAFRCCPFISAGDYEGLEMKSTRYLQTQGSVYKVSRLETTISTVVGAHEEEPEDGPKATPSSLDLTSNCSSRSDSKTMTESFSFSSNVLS

The molecule `O=C(c1cc(C(F)(F)F)cc(C(F)(F)F)c1)N1CCC(N2CCN(C3CCN(Cc4nc5ccccc5[nH]4)CC3)CC2)CC1Cc1ccccc1` (stereo not shown) [Compound 7] returned a melting point of 135 °C.

On to `COc1cc(N)c(Cl)cc1C(=O)N1CCC(N2CCN([C@H]3CCN(C(=O)c4cc(C(F)(F)F)cc(C(F)(F)F)c4)[C@H](Cc4ccccc4)C3)CC2)CC1` [Compound 64], for which the IC50 on h-NK1 receptor is 0.00794 µM; on h-NK2 receptor, 0.398 µM; at h-NK3 receptor it was 0.398 µM.
